According to patent US10201556B2, “Combination for use in treating diseases or conditions associated with melanoma, or treating diseases or conditions associated with activated B-raf pathway” (InteRNA Technologies B.V., priority 2012, dated 2019):
“Also recorded” adds a separate entry of the source.

How the values were obtained:
[1] = system: A2058 melanoma cell line; test: Anti-proliferative effect of small molecules, MTS assay; type: cell-based; conditions: Homo sapiens, A2058, intrinsic resistance, 72 hours
Protocol: (§1) The anti-proliferative effect of small molecules in melanoma cell lines was determined with V600E BRAF inhibitor, vemurafenib (PLX-4032, 51267, Selleck) and MEK inhibitor, selumetinib (AZD-6244, S1008, Selleck). For each cell line optimal growth conditions were determined prior to the experiment. Cells were plated in a 96-well plate at 3000 cells per well (100 uL) and were grown at 37 C, 5% CO2. Small molecule mix (50 uL per well) was made for each concentration in medium. Cells were treated in triplicate 24 hours after plating. After 72 hours medium was replaced and viability was measured with the MTS assay (Promega) according to manufacturer's instructions. Cell viability inhibition is normalized against loading control (0.1% DMSO) and GraphPad Prism was used to fit the curve and calculate GI50 values.

[2] = system: M249-R4 melanoma cell line; test: as above; type: cell-based; conditions: M249-R4 (M249-AR4), in vitro acquired resistance, 72 hours
Protocol: as §1

[3] = system: A375Hu melanoma cell line; test: as above; type: cell-based; conditions: Homo sapiens, A-375, 72 h, A375Hu (A375), vemurafenib sensitive
Protocol: as §1

[4] = system: RPMI-7951 melanoma cell line; test: as above; type: cell-based; conditions: Homo sapiens
Protocol: as §1

[5] = system: M249 melanoma cell line; test: as above; type: cell-based; conditions: M249, 72 h, M249, vemurafenib sensitive
Protocol: as §1

[6] = system: phospho-ERK1/2; test: Western immunoblotting of phospho-ERK1/2 protein levels; type: cell-based, human; conditions: Western blot
Protocol: (§2) A375Hu cells were seeded in 6-well plates and transfected with different concentrations (10, 50 and 100 nM) of synthetic hsa-miR-129-5p or BRAF siRNA (100 nM) using RNAiMAX (7.5 μl/well). As control a scrambled miRNA and a non-targeting siRNA pool were included. Proteins were harvested 72 hrs post transfection using RIPA buffer supplemented with HALT™ Phosphatase Inhibitor (Thermo Scientific) and Protease Inhibitor Cocktail (Sigma). Fifteen μg protein was loaded on 7.5% TGX acrylamide gels (Bio-Rad) and subsequently transferred to PVDF membranes. The membranes were blocked in 5% milk in TBS-T and incubated O/N at 4° C. with primary antibodies to bRAF, phosphoERK1/2, CDK6, and tubulin (Santa Cruz). After incubation with secondary goat-anti-mouse antibodies (Santa Cruz), membranes were developed using ECL (Pierce).
as §2, with “(1, 10” for “(10, 50”, “hsa-miR-3157” for “hsa-miR-129-5p”, “bRAF, total ERK1/2,” for “bRAF,”, “CDK4, BCL2” for “CDK6,”
as §2, with “concentrations” for “concentrations (10, 50 and 100 nM)”, “vemurafenib (PLX-4032, 0.01, 0.1, 1 uM).” for “synthetic hsa-miR-129-5p or BRAF siRNA (100 nM) using RNAiMAX (7.5 μl/well). As control a scrambled miRNA and a non-targeting siRNA pool were included.”, “bRAF, total ERK1/2,” for “bRAF,”, “CDK4, BCL2” for “CDK6,”
A2058 cells were seeded in 6-well plates and transfected with different concentrations (1, 10 and 100 nM) of synthetic hsa-miR-3157-5p or BRAF siRNA using X-TremeGene (Roche, 15 μl/well). As control a scrambled miRNA was included. Proteins were harvested 72 hrs post transfection using RIPA buffer supplemented with HALT™ Phosphatase Inhibitor (Thermo Scientific) and Protease Inhibitor Cocktail (Sigma). Fifteen μg protein was loaded on 10% TGX acrylamide gels (Bio-Rad) and subsequently transferred to PVDF membranes. The membranes were blocked in 5% milk in TBS-T and incubated O/N at 4° C. with primary antibodies to bRAF, total ERK1/2, phosphoERK1/2, BCL2, CDK4 and tubulin (Santa Cruz). After incubation with secondary goat-anti-mouse antibodies (Santa Cruz), membranes were developed using ECL (Pierce).
Transfection was performed as described in Example 4 in 6-well format. Proteins were isolated using RIPA buffer (50 mM Tris pH 8.0, 150 mM NaCL, 1% NP-40, 0.5% Sodium deoxycholate, 0.1% SDS), supplemented with Protease Inhibitor Cocktail (Sigma) and Halt™ Phosphatase Inhibitor Cocktail (Pierce/Thermo Scientific). […]

[7] = system: 3′UTR of AURKB; test: 3′UTR Luciferase assay in HeLa cells; type: cell-based; conditions: 10 nM mimic, 24 hrs
Protocol: The 3′UTR sequences (Table 11) were synthesized by IDT Technologies, and cloned into psiCHECK™-2 (Promega). HeLa cells (5×10^4) were seeded in 24-well plates, and the next day transfected with 100 ng/well 3′UTR psiCHECK™-2 construct and 10 nM miR-3157 mimics, or control miRNA using Lipofectamine 2000 Transfection Reagent (Invitrogen). After 24 hrs cells were lysed using Passive Lysis Buffer and luciferase activity was measured using the Dual-Luciferase Reporter Assay System (Promega) and the Glomax-Multi Detection system (Promega) in a 96-well format according to the manufacturer's protocol. The Renilla luciferase signal was normalized to background Firefly luciferase, and changes in Renilla luciferase activity in the miR-3157 transfected cells calculated relative to the Renilla signal in control mimic transfected cells.

| Molecule | GI50 [1] | GI50 [2] | GI50 [3] | cytotoxicity at 3 µM ([4]; RPMI-7951, 3 μM vemurafenib (FIG. 15a), read-out: reduction of cell viability) | GI50 ([4]; RPMI-7951, intrinsic resistance, 72 hours, MTS) | GI50 [5] | phospho-ERK1/2 protein levels ([6]; A375Hu cells, 72 hrs) | phospho-ERK1/2 protein levels ([6]; A375Hu cells, 72 hrs, listed as PLX-4032) | luciferase activity, AURKB 3′UTR with mutated miR-3157 binding site [7] | luciferase activity, AURKB 3′UTR unmodified ([7]; relative to control mimic) | phospho-ERK1/2 protein levels ([6]; A2058 cells (vemurafenib resistant), 72 hrs post transfection) |
| --- | --- | --- | --- | --- | --- | --- | --- | --- | --- | --- | --- |
| CCCS(=O)(=O)Nc1ccc(F)c(C(=O)c2c[nH]c3ncc(-c4ccc(Cl)cc4)cc23)c1F [Vemurafenib, N-(3-{[5-(4-chlorophenyl)-1H-pyrrolo[2,3-b]pyridin-3-yl]carbonyl}-2,4-difluorophenyl)propane-1-sulfonamide] | > 10 µM | > 10 µM | ~0.1 µM | ~20% | > 10 µM | ~0.3 µM | inhibits | down regulation | – | – | – |
| hsa-miR-3157-5p: mature miRNA mimic, SEQ ID NO 6 UUCAGCCAGGCUAGUGCAGUCU (listed as RNA, chemistry not given here) | – | – | – | – | – | – | does not down-regulate; also recorded: not affected | – | remained unaffected | reduced luciferase activity | not down-regulated |
